Measurements reported in patent publication US10632113B2, “Abuse-resistant drug formulations with built-in overdose protection” (KASHIV BIOSCIENCES, LLC, priority 2014, dated 2020).
Structures can show the parent of a compound that is named as a salt.

Experiments:
[1] = Dissolution studies using USP Apparatus II, single vs multiple doses; format: physicochemical; conditions: Type A + Type C granules in capsule, 250 ml medium pH 1.6, 10, 30, 60, 120 minutes
[2] = Binding studies using USP Apparatus I (naloxone to ion exchange polymer); format: physicochemical; conditions: 1:1 molar naloxone:Amberlite IRP64, 500 mL 0.1 N HCl / 5 mM phosphate buffer pH 6.8
Experimental: The following experiment was done. • 1. Based on the 1:1 molar ratio of naloxone:Amberlite™ IRP64, take the required quantity of naloxone and Amberlite™ IRP64 blend in a capsule and add it to 500 mL of the medium (0.1 N HCl/5 mM Phosphate buffer, pH 6.8). • 2. Withdraw dissolution samples at 10, 30 and 60 mins. • 3. Centrifuge the samples at 3000 rpm for 10 mins and filter through fritted filter ([…]) to get the supernatant for analysis. The results are illustrated in FIG. 9.

COc1ccc2c3c1O[C@H]1C(=O)CC[C@@]4(O)[C@@H](C2)N(C)CC[C@]314.Cl [oxycodone hydrochloride]
percentage of drug released, multiple doses versus single dose [1]: drastically reduced

C=CCN1CC[C@]23c4c5ccc(O)c4O[C@H]2C(=O)CC[C@@]3(O)[C@H]1C5 [naloxone hydrochloride]
percentage of naloxone hydrochloride bonded to ion exchange polymer, multiple doses versus single dose [2]: drastically increases
